Measured values as given in patent US9237996B2, “Glucosyltransferase inhibitor containing epigallocatechin gallate polymer as active ingredient” (priority 2008, dated 2016).

What was measured:
[1] = molecular target: T1, glucosyltransferase C (GTFC) (Streptococcus mutans serotype c, UniProt P13470); assay: Glucosyltransferase inhibitory activity, turbidity (550 nm) of water-insoluble glucan, rGTFC; assay type: biochemical; conditions: 37° C. overnight
T1 construct: made in house; host or cells: Escherichia coli XL-2 harboring a plasmid (printed as pSK6)
Experimental: (§1) The glucosyltransferase inhibitory activity can be measured by using any one of the evaluation methods described in prior-art literatures set forth in Background Art. For example, glucosyltransferase prepared from Streptococcus mutans etc. is added to an aqueous solution containing sucrose, and incubated at about the same temperature (about 37° C.) as in the oral cavity for less than 24 hours, preferably about 16 to 20 hours to enzymatically produce glucan from sucrose. Since glucan is insoluble in water, the turbidity of the resultant reaction solution (for example, turbidity at a wavelength of 550 nm) is measured. In this manner, the yield of glucan can be evaluated. If the yield of glucan low (in other words, turbidity is low), it is said that glucosyltransferase activity is more inhibited than that of the case where the yield of glucan is large (in other words, turbidity is high).
Similarly, recombinant glucosyltransferase C (rGTFC) was prepared by using Escherichia coli XL-2 strain harboring a plasmid pSK6 having a gene encoding glucosyltransferase C (GTFC) of Streptococcus mutans and put in use in later experiments.
The rGTFB having a specific activity of 503 mU/mg protein and the rGTFC having a specific activity of 6.3 to 22.3 mU/mg protein were used as a mixture. The activity 1U represents activity of an enzyme in converting glucose ([…]) derived from sucrose into glucan per minute. Protein was quantified by using the bicinchonine acid method (BCA method) (BCA protein assay kit, manufactured by PIERCE).
(§2) With 2 mL of 0.1M KPB (pH6.0) containing 1% sucrose-containing 0.1% dextran T10, rGTFB or rGTFC (amount corresponding to 15 mU (average value)) obtained in Example 2, and each of the above samples (final concentration: 0.1 mg/mL) were mixed. The mixture was incubated at 37° C. overnight. The turbidity (550 nm) of the resultant reaction solution was measured to obtain the yield of glucan insoluble in water. The lower yield of the glucan insoluble in water (in other words, turbidity is low) means that the activity of glucosyltransferase is more inhibited. Note that the control (cont) shown in the figures represents turbidity in the absence of the aforementioned samples.
With 2 mL of 0.1M KPB (pH6.0) containing 1% sucrose and 0.1% dextran T10, rGTFB or rGTFC (amount corresponding to 15 mU (average value)) obtained in Example 2 and each of the above samples (final concentration: 0.05 mg/mL) were mixed. The mixture was incubated at 37° C. overnight. The turbidity (550 nm) of the resultant reaction solution was measured to obtain the yield of glucan insoluble in water. The lower yield of the glucan insoluble in water (in other words, turbidity is low) means that the activity of glucosyltransferase is more inhibited. […]

[2] = molecular target: T2, glucosyltransferase B (GTFB) (Streptococcus mutans serotype c, UniProt P08987); assay: Glucosyltransferase inhibitory activity, turbidity (550 nm) of water-insoluble glucan, rGTFB; assay type: biochemical; conditions: 37° C. overnight
T2 construct: made in house; host or cells: Escherichia coli XL-2 harboring plasmid pSK6
Experimental: as §1
rGTF was prepared by the method described in the paper of M. matsumoto et al, FEMS Microbiology Letters 228 (2003) 73-80. More specifically, Escherichia coli XL-2 strain harboring a plasmid pSK6 having a gene encoding glucosyltransferase B (GTFB) of Streptococcus mutans was subjected to shaking culture performed in Luria Bertani liquid medium containing ampicillin (100 μg/mL) and tetracycline (7.5 μg/mL) at 37° C. for 16 hours. Bacterial cells were collected by centrifugally separating the medium, suspended in a 10 mM phosphate buffer (pH 6.5) previously cooled and crushed by an ultrasonic generator (UD201 type, manufactured by Tomy Seiko Co., Ltd., Tokyo) under ice cooling. After crushed, precipitates were centrifugally removed at 12,000×g for 30 minutes. The resultant supernatant was used as glucosyltransferase B (rGTFB) and put in use in later experiments.
The rGTFB having a specific activity of 503 mU/mg protein and the rGTFC having a specific activity of 6.3 to 22.3 mU/mg protein were used as a mixture. […] Protein was quantified by using the bicinchonine acid method (BCA method) (BCA protein assay kit, manufactured by PIERCE).
With 2 mL of 0.1M KPB (pH6.0) containing 1% sucrose-containing 0.1% dextran T10, rGTFB or rGTFC (amount corresponding to 15 mU (average value)) obtained in Example 2, and each of the above samples (final concentration: 0.1 mg/mL) were mixed. […] The turbidity (550 nm) of the resultant reaction solution was measured to obtain the yield of glucan insoluble in water. […]
With 2 mL of 0.1M KPB (pH6.0) containing 1% sucrose and 0.1% dextran T10, rGTFB or rGTFC (amount corresponding to 15 mU (average value)) obtained in Example 2 and each of the above samples (final concentration: 0.05 mg/mL) were mixed. […] The turbidity (550 nm) of the resultant reaction solution was measured to obtain the yield of glucan insoluble in water. […]

[3] = system: glucosyltransferase (GTF); assay: Overall GTF inhibitory activity, conclusion from the rGTFB and rGTFC tests; assay type: biochemical, Streptococcus mutans; conditions: summary of Examples 3 and 4, GTFB and GTFC
Experimental: as §2
as §2, with “1% sucrose and” for “1% sucrose-containing”, “Example 2” for “Example 2,”, “concentration: 0.05” for “concentration: 0.1”

[4] = sample final concentration 0.1 mg/mL, FIG. 8
[5] = sample final concentration 0.1 mg/mL, FIG. 7

T1 sequence (P13470 35-1455): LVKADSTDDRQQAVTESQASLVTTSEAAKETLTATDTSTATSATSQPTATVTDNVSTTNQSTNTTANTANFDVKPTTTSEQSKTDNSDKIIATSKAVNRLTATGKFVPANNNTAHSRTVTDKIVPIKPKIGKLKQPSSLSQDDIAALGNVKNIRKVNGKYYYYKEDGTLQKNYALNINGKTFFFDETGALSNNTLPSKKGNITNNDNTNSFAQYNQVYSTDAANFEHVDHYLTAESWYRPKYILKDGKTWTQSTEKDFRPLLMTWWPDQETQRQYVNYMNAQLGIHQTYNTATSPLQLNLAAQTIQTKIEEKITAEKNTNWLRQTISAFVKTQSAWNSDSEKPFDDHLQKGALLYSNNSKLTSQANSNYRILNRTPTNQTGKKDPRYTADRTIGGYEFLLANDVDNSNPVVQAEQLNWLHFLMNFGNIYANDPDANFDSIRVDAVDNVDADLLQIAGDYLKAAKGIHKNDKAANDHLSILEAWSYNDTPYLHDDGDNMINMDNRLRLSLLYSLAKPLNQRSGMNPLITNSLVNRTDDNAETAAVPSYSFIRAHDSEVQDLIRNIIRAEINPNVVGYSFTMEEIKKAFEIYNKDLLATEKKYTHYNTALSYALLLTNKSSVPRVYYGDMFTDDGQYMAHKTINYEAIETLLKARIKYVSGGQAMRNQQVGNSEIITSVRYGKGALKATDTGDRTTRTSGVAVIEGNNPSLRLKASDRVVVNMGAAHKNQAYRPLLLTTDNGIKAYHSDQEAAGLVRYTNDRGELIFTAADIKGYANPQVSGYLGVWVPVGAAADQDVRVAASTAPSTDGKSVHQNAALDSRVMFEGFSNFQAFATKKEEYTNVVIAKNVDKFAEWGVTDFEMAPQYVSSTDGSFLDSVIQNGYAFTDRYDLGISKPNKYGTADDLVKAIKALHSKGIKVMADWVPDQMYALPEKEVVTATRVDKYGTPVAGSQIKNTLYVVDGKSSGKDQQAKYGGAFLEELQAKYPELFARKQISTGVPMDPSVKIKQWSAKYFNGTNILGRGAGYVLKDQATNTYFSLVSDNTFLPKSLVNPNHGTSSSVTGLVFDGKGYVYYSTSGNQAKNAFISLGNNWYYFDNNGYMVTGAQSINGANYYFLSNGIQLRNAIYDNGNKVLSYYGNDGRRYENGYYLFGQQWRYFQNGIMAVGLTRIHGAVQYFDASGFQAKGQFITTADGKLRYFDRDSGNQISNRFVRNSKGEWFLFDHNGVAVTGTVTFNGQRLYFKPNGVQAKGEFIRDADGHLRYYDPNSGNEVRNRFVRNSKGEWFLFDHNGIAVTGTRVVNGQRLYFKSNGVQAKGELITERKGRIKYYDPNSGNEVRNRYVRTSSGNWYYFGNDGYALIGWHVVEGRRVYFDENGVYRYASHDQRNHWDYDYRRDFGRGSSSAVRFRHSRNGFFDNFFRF
T2 sequence (P08987 35-1476): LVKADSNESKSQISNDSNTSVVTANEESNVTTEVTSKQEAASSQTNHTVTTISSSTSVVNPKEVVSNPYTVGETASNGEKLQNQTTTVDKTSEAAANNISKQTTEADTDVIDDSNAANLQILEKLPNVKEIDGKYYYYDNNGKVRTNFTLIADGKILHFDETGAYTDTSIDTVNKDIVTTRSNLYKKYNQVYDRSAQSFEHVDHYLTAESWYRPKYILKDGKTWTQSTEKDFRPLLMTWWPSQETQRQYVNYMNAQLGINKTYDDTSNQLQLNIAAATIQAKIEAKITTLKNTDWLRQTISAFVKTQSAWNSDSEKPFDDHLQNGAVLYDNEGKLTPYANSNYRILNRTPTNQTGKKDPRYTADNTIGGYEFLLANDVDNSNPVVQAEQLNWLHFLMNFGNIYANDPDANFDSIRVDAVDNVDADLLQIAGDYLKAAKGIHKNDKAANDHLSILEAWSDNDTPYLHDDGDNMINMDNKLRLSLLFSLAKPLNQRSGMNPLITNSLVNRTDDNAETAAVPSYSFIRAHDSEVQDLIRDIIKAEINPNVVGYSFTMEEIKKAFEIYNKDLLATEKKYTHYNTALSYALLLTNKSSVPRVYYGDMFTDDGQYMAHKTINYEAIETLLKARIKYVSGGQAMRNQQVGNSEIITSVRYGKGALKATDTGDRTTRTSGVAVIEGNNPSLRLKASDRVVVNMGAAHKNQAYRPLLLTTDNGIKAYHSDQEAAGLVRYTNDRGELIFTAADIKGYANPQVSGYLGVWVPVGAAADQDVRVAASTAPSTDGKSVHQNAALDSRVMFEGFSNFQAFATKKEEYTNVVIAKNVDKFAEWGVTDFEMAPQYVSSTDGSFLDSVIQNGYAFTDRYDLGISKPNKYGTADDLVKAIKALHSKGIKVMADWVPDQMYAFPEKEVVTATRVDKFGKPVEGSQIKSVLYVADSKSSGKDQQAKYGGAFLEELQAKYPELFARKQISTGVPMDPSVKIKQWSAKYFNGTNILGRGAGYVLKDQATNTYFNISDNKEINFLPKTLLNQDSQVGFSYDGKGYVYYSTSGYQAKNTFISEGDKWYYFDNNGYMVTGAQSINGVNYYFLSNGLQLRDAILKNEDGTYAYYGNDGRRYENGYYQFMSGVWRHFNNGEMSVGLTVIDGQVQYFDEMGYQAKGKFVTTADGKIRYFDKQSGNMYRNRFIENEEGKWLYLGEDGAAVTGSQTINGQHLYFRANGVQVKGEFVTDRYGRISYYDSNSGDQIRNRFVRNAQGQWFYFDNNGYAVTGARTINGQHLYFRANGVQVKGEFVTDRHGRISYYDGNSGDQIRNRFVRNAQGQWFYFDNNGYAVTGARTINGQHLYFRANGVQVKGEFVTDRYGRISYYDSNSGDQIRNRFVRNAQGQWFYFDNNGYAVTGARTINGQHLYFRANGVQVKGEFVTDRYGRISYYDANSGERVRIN

Row | Structure (SMILES) | effect on the activity of GTFC (yield of water-insoluble glucan, turbidity) [1, 4] | effect on the activity of GTFB (yield of water-insoluble glucan, turbidity) [2, 5] | GTF inhibitory activity (overall) [3] | effect on the activity of GTFC (yield of water-insoluble glucan, turbidity) ([1]; sample final concentration 0.05 mg/mL, FIG. 10) | effect on the activity of GTFB (yield of water-insoluble glucan, turbidity) ([2]; sample final concentration 0.05 mg/mL, FIG. 9)
1 | O=C(O[C@@H]1Cc2c(O)cc(O)c(Cc3c(O)cc(O)c4c3O[C@H](c3cc(O)c(O)c(O)c3)[C@H](OC(=O)c3cc(O)c(O)c(O)c3)C4)c2O[C@@H]1c1cc(O)c(O)c(O)c1)c1cc(O)c(O)c(O)c1 [OHBF-A, oolong homobisflavan-A] | slightly enhances | inhibits | – | – | –
2 | O=C(O[C@@H]1Cc2c(cc(O)c(Cc3c(O)cc(O)c4c3O[C@H](c3cc(O)c(O)c(O)c3)[C@H](OC(=O)c3cc(O)c(O)c(O)c3)C4)c2O)O[C@@H]1c1cc(O)c(O)c(O)c1)c1cc(O)c(O)c(O)c1 [OHBF-B, oolong homobisflavan-B] | inhibit | inhibit | high | – | –
3 | O=C(O[C@@H]1Cc2c(O)cc(O)c(Cc3c(O)c(Cc4c(O)c(Cc5c(O)cc(O)c6c5O[C@H](c5cc(O)c(O)c(O)c5)[C@H](OC(=O)c5cc(O)c(O)c(O)c5)C6)c(O)c5c4O[C@H](c4cc(O)c(O)c(O)c4)[C@H](OC(=O)c4cc(O)c(O)c(O)c4)C5)c4c(c3O)C[C@@H](OC(=O)c3cc(O)c(O)c(O)c3)[C@@H](c3cc(O)c(O)c(O)c3)O4)c2O[C@@H]1c1cc(O)c(O)c(O)c1)c1cc(O)c(O)c(O)c1 [OHBF-Tet-2, oolong homobisflavan-tetramer-2] | – | – | – | slightly inhibited | significant inhibitory effect on GTFB was not confirmed
4 | O=C(O[C@@H]1Cc2c(O)cc(O)cc2O[C@@H]1c1cc(O)c(O)c(O)c1-c1c([C@H]2Oc3cc(O)cc(O)c3C[C@H]2OC(=O)c2cc(O)c(O)c(O)c2)cc(O)c(O)c1O)c1cc(O)c(O)c(O)c1 [TSN-A, theasinensin A, reference compound] | extremely enhances | substantially no effect | – | – | –
